In the test the target is T1, Human neutrophil elastase (Homo sapiens, UniProt P08246).
T1 construct: purchased Calbiochem 324681
T1 sequence (P08246 30-267): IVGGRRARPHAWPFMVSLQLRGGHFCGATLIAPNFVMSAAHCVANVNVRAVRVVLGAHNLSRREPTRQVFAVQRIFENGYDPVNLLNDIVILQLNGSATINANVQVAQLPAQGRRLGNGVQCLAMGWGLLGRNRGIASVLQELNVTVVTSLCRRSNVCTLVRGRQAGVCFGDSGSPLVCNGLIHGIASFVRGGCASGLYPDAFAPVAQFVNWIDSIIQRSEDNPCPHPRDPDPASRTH
The experiment in a line: Human Neutrophil Elastase Assay. As to conditions: Neutrophil Elastase assay; substrate MeOSuc-Ala-Ala-Pro-Val-AMC 250 μM; 15 min preincubation, 60 min incubation at room temperature; pH 7.5. The test is classed as biochemical. The procedure:
Human Neutrophil Elastase Assay
All other materials were of the highest grade commercially available.
The following buffers were used: Compound buffer: 100 mM Tris, 500 mM NaCl, adjusted to pH 7.5; Assay buffer: 100 mM Tris, 500 mM NaCl, adjusted to pH 7.5, containing 0.01% BSA.
Assay conditions: Test compounds were prediluted in DMSO and subsequently in compound buffer (5% DMSO final). […] After inactivation of the enzyme, fluorescence intensities were measured at 380 nm excitation and 460 nm emission wavelengths.
Each plate contains wells with a high value control (DMSO+enzyme+substrate) and wells with a low value control (DMSO+inactivated enzyme+substrate). […] Means of low values were taken as 0%, means of high values as 100%.
On to `Cc1c(-c2cccc(C(F)(F)F)c2)c(=O)c(C(=O)NCC(=O)N2CCCC2)cn1Cc1ccc(C#N)cc1` [Example 1.54], for which the 50% inhibitory concentration (IC50) was 41.5 nM.
Turning to `Cc1c(-c2cccc(C(F)(F)F)c2)c(=O)c(C(=O)NC2CC(=O)N(C)C2)cn1Cc1ccc(C#N)cc1` (stereo not shown) [Example 1.61], the midpoint of inhibition, the IC50, lay at 11.4 nM.
Turning to `Cc1c(-c2ccnc(C(F)(F)F)c2)c(=O)c(C(=O)NC2CNC(=O)C2)cn1C(C)c1ccc(C#N)cc1` (stereo not shown) [Example 9.8], the 50% inhibitory concentration (IC50) is 4.2 nM.
Regarding `Cc1c(-c2ccnc(C(F)(F)F)c2)c(=O)c(C(=O)NCCC#N)cn1C(C)c1ccc(C#N)cc1` (stereo not shown) [Example 9.54], the half-inhibitory concentration (IC50) worked out at 4.1 nM.
`Cc1c(-c2cccc(C(F)(F)F)c2)c(=O)c(C(=O)NCc2cncn2C)cn1Cc1ccc(C#N)cc1` [Example 1.32] gave a half-maximal inhibitory concentration (IC50) of 23 nM.
`Cc1c(-c2cccc(C(F)(F)F)c2)c(=O)c(C(=O)NCC(F)(F)F)cn1C(C)c1ccc(C#N)cn1` (stereo not shown) [Example 47.3] displayed an IC50 of 10.7 nM.
As for `CCNC(=O)c1cn(C(C)c2ccc(C#N)cn2)c(C)c(-c2cccc(C(F)F)c2)c1=O` (stereo not shown) [Example 18, 1-[1-(5-Cyano-pyridin-2-yl)-ethyl]-5-(3-difluoromethyl-phenyl)-6-methyl-4-oxo-1,4-dihydro-pyridine-3-carboxylic acid ethylamide], the midpoint of inhibition, the IC50, lay at 5.4 nM.
The compound `Cc1c(-c2cccc(C(F)(F)F)c2)c(=O)c(C(=O)NCc2ccccn2)cn1Cc1ccc(C#N)cc1` [Example 1.48] showed an IC50 of 4.1 nM.
The compound `Cc1c(-c2ccnc(C(F)(F)F)c2)c(=O)c(C(=O)NC2COCC2O)cn1C(C)c1ccc(C#N)cc1` (stereo not shown) [Example 9.42] came in with an IC50 of 29.9 nM.
Under `Cc1noc(CNC(=O)c2cn(C(C)c3ccc(C#N)cc3)c(C)c(-c3cccc(C(F)(F)F)c3)c2=O)n1` (stereo not shown) [Example 7.2] stands 2.5 nM.
`Cc1c(-c2cccc(C(F)(F)F)c2)c(=O)c(C(=O)NCCc2ccccn2)cn1Cc1ccc(C#N)cc1` [Example 1.43] displayed an IC50 of 8.9 nM.
`Cc1c(-c2ccnc(C(F)(F)F)c2)c(=O)c(C(=O)NCC(N)=O)cn1C(C)c1ccc(C#N)cc1` (stereo not shown) [Example 9.18] displayed an IC50 of 7.5 nM.
Under `CCS(=O)(=O)c1cc(C#N)ccc1Cn1cc(C(=O)NC)c(=O)c(-c2cccc(C(F)(F)F)c2)c1C` [Example 26] stands 10.8 nM.
Compound `Cc1c(-c2cccc(C(F)F)c2)c(=O)c(C(=O)NCCCCO)cn1C(C)c1ccc(C#N)cc1` (stereo not shown) [Example 8.13] had an IC50 of 3.2 nM.
The compound `Cc1c(-c2cccc(C(F)F)c2)c(=O)c(C(=O)NC2CNC(=O)C2)cn1C(C)c1ccc(C#N)cc1` (stereo not shown) [Example 8.7] yielded an IC50 of 1.7 nM.
With `CCCNC(=O)c1cn(Cc2ccc(C#N)cc2)c(C)c(-c2cccc(C(F)(F)F)c2)c1=O` [Example 1.18], the IC50 was 23.8 nM.
In turn, `Cc1c(-c2cccc(C(F)(F)F)c2)c(=O)c(C(=O)NCc2ccc(S(C)(=O)=O)cc2)cn1Cc1ccccc1` [Example 2.1, 1-Benzyl-6-methyl-4-oxo-5-(3-trifluoromethyl-phenyl)-1,4-dihydro-pyridine-3-carboxylic acid 4-methanesulfonyl-benzylamide] gave an IC50 of 55.3 nM.
Under `CCNC(=O)c1cn(C(C)c2ccc(C#N)cc2)c(C)c(-c2ccnc(C(F)F)c2)c1=O` (stereo not shown) [Example 38, 1-[1-(4-Cyano-phenyl)-ethyl]-2′-difluoromethyl-2-methyl-4-oxo-1,4-dihydro-[3,4′]bipyridinyl-5-carboxylic acid ethylamide] stands 11 nM; under `COc1ccc(CNC(=O)c2cn(Cc3ccc(C#N)cc3)c(C)c(-c3cccc(C(F)(F)F)c3)c2=O)cn1` [Example 1.56], 4.6 nM; under `Cc1c(-c2ccnc(C(F)(F)F)c2)c(=O)c(C(=O)NC2(C#N)CC2)cn1C(C)c1ccc(C#N)cc1` (stereo not shown) [Example 9.45], 5.3 nM.
On to `CNC(=O)c1cn(Cc2ccc(C#N)cn2)c(C)c(-c2cccc(C(F)F)c2)c1=O` [Example 34], for which half-maximal inhibition (IC50) required 31.2 nM.
Take `Cc1c(-c2cccc(C(F)(F)F)c2)c(=O)c(C(=O)NCc2ccc(S(C)(=O)=O)cc2)cn1Cc1ccc(Cl)cc1` [Example 2.7]: 6.9 nM corresponded to half-maximal inhibition (IC50).
Regarding `Cc1c(-c2cccc(C(F)(F)F)c2)c(=O)c(C(=O)NCCn2cccn2)cn1Cc1ccc(C#N)cc1` [Example 1.30], the IC50 worked out at 17.1 nM.
Compound `Cc1c(-c2ccnc(C(F)(F)F)c2)c(=O)c(C(=O)NC2CCOC2)cn1C(C)c1ccc(C#N)cc1` (stereo not shown) [Example 9.34] displayed an IC50 of 23.5 nM.
In the case of `Cc1c(-c2cccc(C(F)(F)F)c2)c(=O)c(C(=O)NCC2CCN(C(=O)C[N+](C)(C)C)CC2)cn1Cc1ccc(C#N)cc1` [Example 12.4, {2-[4-({[1-(4-Cyano-benzyl)-6-methyl-4-oxo-5-(3-trifluoromethyl-phenyl)-1,4-dihydro-pyridine-3-carbonyl]-amino}-methyl)-piperidin-1-yl]-2-oxo-ethyl}-trimethyl-ammonium chloride], half-maximal inhibition (IC50) was put at 14.4 nM.
In turn, `Cc1c(-c2ccnc(C(F)(F)F)c2)c(=O)c(C(=O)NC2CCCC2O)cn1C(C)c1ccc(C#N)cc1` (stereo not shown) [Example 9.36] registered an IC50 of 33.9 nM.
In turn, `Cc1c(-c2ccnc(C(F)(F)F)c2)c(=O)c(C(=O)NC2CCCC2O)cn1C(C)c1ccc(C#N)cc1` (stereo not shown) [Example 9.41] yielded an IC50 of 100 nM.
`CCNC(=O)c1cn(Cc2ccc(C#N)cc2)c(C)c(-c2cccc(C(F)(F)F)c2)c1=O` [Example 1.51]: the IC50 was 10.7 nM.
For the compound `Cc1cncc(-c2c(C)n(Cc3ccc(C#N)cc3)cc(C(=O)NCc3ccc(S(C)(=O)=O)cc3)c2=O)c1` [Example 6.4], the IC50 is 19.3 nM.
As for `CNC(=O)c1cn(C(C)c2ccc(C#N)cn2)c(C)c(-c2cccc(C(F)F)c2)c1=O` (stereo not shown) [Example 16, 1-[1-(5-Cyano-pyridin-2-yl)-ethyl]-5-(3-difluoromethyl-phenyl)-6-methyl-4-oxo-1,4-dihydro-pyridine-3-carboxylic acid methylamide], the IC50 was found to be 9.9 nM.
On to `Cc1nnc(CNC(=O)c2cn(Cc3ccc(C#N)cc3S(C)(=O)=O)c(C)c(-c3cccc(C(F)(F)F)c3)c2=O)o1` [Example 22], for which the IC50 stood at 2.8 nM.
For `CS(=O)(=O)c1ccc(CNC(=O)c2cn(Cc3ccc(C#N)cc3)cc(-c3cccc(C(F)(F)F)c3)c2=O)nc1` [Example 13.2, 1-(4-Cyano-benzyl)-4-oxo-5-(3-trifluoromethyl-phenyl)-1,4-dihydro-pyridine-3-carboxylic acid (5-methanesulfonyl-pyridin-2-ylmethyl)-amide], the IC50 worked out at 5.2 nM.
For the compound `Cc1c(-c2ccnc(C(F)(F)F)c2)c(=O)c(C(=O)NC(C)(C)C#N)cn1C(C)c1ccc(C#N)cc1` (stereo not shown) [Example 9.46], the IC50 was 94 nM.
In turn, `Cc1c(-c2ccnc(C(F)(F)F)c2)c(=O)c(C(=O)NCCO)cn1C(C)c1ccc(C#N)cc1` (stereo not shown) [Example 9.9] came in with an IC50 of 7.6 nM.
`CNC(=O)c1cn(Cc2ccc(Cl)cc2)c(C)c(-c2cccc(C(F)(F)F)c2)c1=O` [Example 3.4] displayed an IC50 of 29.1 nM.
For the compound `Cc1c(-c2cccc(C(F)(F)F)c2)c(=O)c(C(=O)NCCc2ccncc2)cn1Cc1ccc(C#N)cc1` [Example 1.45], half-maximal inhibition (IC50) required 7.6 nM.
For the compound `Cc1c(-c2cccc(C(F)F)c2)c(=O)c(C(=O)NCCN(C)C)cn1C(C)c1ccc(C#N)cc1` (stereo not shown) [Example 8.11], 4.3 nM corresponded to half-maximal inhibition (IC50).
Under `COCC(C)(C#N)NC(=O)c1cn(C(C)c2ccc(C#N)cc2)c(C)c(-c2ccnc(C(F)(F)F)c2)c1=O` (stereo not shown) [Example 9.49] stands 150 nM; under `Cc1c(-c2ccnc(C(F)(F)F)c2)c(=O)c(C(=O)NCc2ccc(S(C)(=O)=O)cc2)cn1Cc1ccc(C#N)cc1` [Example 6.11], below 1 nM; under `Cc1c(-c2ccnc(C(F)(F)F)c2)c(=O)c(C(=O)NCC2CCCCO2)cn1C(C)c1ccc(C#N)cc1` (stereo not shown) [Example 9.37], 32.9 nM.
Regarding `Cc1c(-c2cccc(C(F)(F)F)c2)c(=O)c(C(=O)NCC#N)cn1Cc1ccc(C#N)cc1` [Example 46, 1-(4-Cyano-benzyl)-6-methyl-4-oxo-5-(3-trifluoromethyl-phenyl)-1,4-dihydro-pyridine-3-carboxylic acid cyanomethyl-amide], the IC50 was 2.3 nM.
With `Cc1c(-c2cccc(C(F)F)c2)c(=O)c(C(=O)NCCCN(C)C)cn1C(C)c1ccc(C#N)cc1` (stereo not shown) [Example 8.1], the IC50 worked out at 4.1 nM.
`CNC(=O)c1cn(C(C)c2ccc(C#N)cc2)c(C)c(-c2cccc(CF)c2)c1=O` (single isomer, unassigned) [Example 31B]: 4.2 nM corresponded to half-maximal inhibition (IC50).
Compound `Cc1c(-c2cccc(C(F)(F)F)c2)c(=O)c(C(=O)NCc2ccc(S(C)(=O)=O)cn2)cn1Cc1ccc(Cl)cc1` [Example 4.2] registered an IC50 of 2.1 nM.
`Cc1c(-c2cccc(C(F)(F)F)c2)c(=O)c(C(=O)NCc2ccc(S(C)(=O)=O)cn2)cn1Cc1ccncc1` [Example 4.3] yielded an IC50 of 58 nM.
Compound `Cc1nc(CNC(=O)c2cn(C(C)c3ccc(C#N)cc3)c(C)c(-c3cccc(C(F)F)c3)c2=O)no1` (stereo not shown) [Example 8.23] displayed an IC50 of 3.4 nM.
As to `Cc1c(-c2ccnc(C(F)(F)F)c2)c(=O)c(C(=O)NCCCS(C)(=O)=O)cn1C(C)c1ccc(C#N)cc1` (stereo not shown) [Example 9.6], the IC50 came to 3.2 nM.
For `CNC(=O)c1cn(C(C)c2ccc(C#N)cn2)c(C)c(-c2cccc(C(F)(F)F)c2)c1=O` (single isomer, unassigned) [Example 15B], 67.8 nM corresponded to half-maximal inhibition (IC50).
Under `Cc1c(-c2ccnc(C(F)(F)F)c2)c(=O)c(C(=O)NCC2CCC2)cn1C(C)c1ccc(C#N)cc1` (stereo not shown) [Example 9.23] stands 14.4 nM.

The values above are taken from patent USRE46630E1, “Substituted 4-pyridones and their use as inhibitors of neutrophil elastase activity” (Boehringer Ingelheim International GmbH, priority 2012, dated 2017).
